# Results published in patent US20180016548A1, “ACELLULAR SCAFFOLDS FOR MATURATION OF IPSC-HEPATOCYTES” (Northwestern University, priority 2016, published 2018).
# Tested on: CYP1A2
# Test: CYP1A2 enzyme activity in iPSC-hepatocytes (Luc-ME luminescence)
# Assay type: cell-based, human
# Details: in comparison to primary hepatocytes, 5 μM inducer for 48 h
# Procedure: 100 μl of this luciferin medium was added to a 96-well white opaque plate with 100 μl luciferin detection reagent, and the luminescence signal was measured on a Cytation 3 Cell Imaging Multi-Mode Reader (BioTek Inc. Winooski, Vt.). After determining the activity, the amount of cells in each scaffold or sandwich culture was analyzed with Quant-iT™ Pico Green kit following the protocols described above.
compound,measurement,value
Cc1ccc2cc3c(ccc4ccccc43)c3c2c1CC3 [3-methylcholanthrene],induction of CYP1A2 activity,modest
